Data taken from US20030206972A1, “Compositions containing carotenoids and tocotrienols and having synergistic antioxidant effect” (priority 2000, published 2003).
Values joined by “and” are separate entries in the source; they are usually repeats but may differ in a detail not shown here. Identical values can stand only once.

Assay: Peroxy radical scavenging activity (BODIPY 581/591 C11 fluorescence, AMVN radical generator, microplate); synergy by CalcuSyn median-effect method
Assay type: biochemical
Conditions: test material alone, 50 percent inhibition of peroxy radical formation, parenthetic values 95% confidence intervals
Method: As a peroxy radical generator, 2,2′-azobis-2,4-dimethyl valeronitrile (AMVN) was used and obtained from WAKO Chemicals (Richmond, Va.). All standards were of the highest purity commercially available. Additionally, the solvents were of HPLC grade.
Fluorescence measurements were performed using a Packard FluoroCount microplate fluorometer equipped with a temperature-controlled plate holder. All measurements were preformed in a 96-well polypropylene plate with stirring.
Reactions in octane:butyronitrile (9:1, v/v) were carried out at 30° C. All fluorescence measurements were recorded every 15 minutes for 1 hour at excitation wavelengths of 570 nm, with emission at 620 nm. The net protection (area under the curve, AUC) provided by an antioxidant sample was calculated using the trapezoid method. […] The percent inhibition of each dose was calculated as:
[AUC(dose)−AUC(AMVN)]/[AUC(BODIPY)−AUC(AMVN)]×100.
Stock solutions of the test samples were made up in chloroform and 6 μL were added to the reaction mixture to achieve the stated concentrations. The reaction was initiated by the addition of the AMVN and fluorometric readings were recorded every 15 minutes for one hour.
Synergy between astaxanthin and the sample of mixed tocotrienols was assessed using CalcuSyn (BIOSOFT, biosoft.com).
Cm is determined from the x-intercept of the median-effect plot. The fraction affected by the concentration of the test material is fa and the fraction unaffected by the concentration is fu (fu=1−fa). The exponent m is the parameter signifying the sigmoidicity or shape of the dose-effect curve. It is estimated by the slope of the median-effect plot.
The median-effect plot is a plot of x=log(C) vs y=log(fa/fu) and is based on the logarithmic form of Chou's median-effect equation. The goodness of fit for the data to the median-effect equation is represented by the linear correlation coefficient r of the median-effect plot. Usually, the experimental data from enzyme or receptor systems have an r>0.96, from tissue culture an r>0.90 and from animal systems an r>0.85.
Synergy of test components is quantified using the combination index (CI) parameter. […] The equation determines only the additive effect rather than synergism or antagonism.
Dose-response curves were described with each test article separately and then in a two-way combination.

Row | IC50 (listed as astaxanthin) | SMILES | IC50
1 | 196 µg/mL and 195 µg/mL | CC1=C(/C=C/C(C)=C/C=C/C(C)=C/C=C/C=C(C)/C=C/C=C(C)/C=C/C2=C(C)C(=O)[C@@H](O)CC2(C)C)C(C)(C)C[C@H](O)C1=O [Astaxanthin, 3,3′-dihydroxy-β,β-carotene-4,4′-dieto-β-carotene] | 150 (115-194) μg/mL and 182 (145-227) μg/mL
2 | – | CC1=C[C@H](O)CC(C)(C)[C@H]1/C=C/C(C)=C/C=C/C(C)=C/C=C/C=C(C)/C=C/C=C(C)/C=C/C1=C(C)C[C@@H](O)CC1(C)C [Lutein, lutein] | 38 (29-50) μg/mL
3 | – | CC1=C(/C=C/C(C)=C/C=C/C(C)=C/C=C/C=C(C)/C=C/C=C(C)/C=C/C2=C(C)CCCC2(C)C)C(C)(C)CCC1 [β-Carotene, β-carotene] | 196 (171-226) μg/mL and 135 (85-215) μg/mL
